What was measured:
Format in all cases: cell-based, human
[1] = tested on: enkephalin/endorphin transport system in SK—N—SH cells; experiment: [^3H]deltorphin II uptake in SK—N—SH cells, effect of peptides and amino acids; details: for Deltorphin II uptake / effect on [^3H]deltorphin II uptake (in words): [^3H]deltorphin II 25 nM, NaCl, 30 minutes; for Deltorphin II uptake: compound 1 mM; for effect on [^3H]deltorphin II uptake (in words): test substance 1 mM; for Ki: read-out: Ki for inhibition of deltorphin II uptake, dose-response studies
Procedure: (§1) Uptake measurements in control ARPE-19 cells and Tat-ARPE-19 cells. Control ARPE-19 cells and Tat-ARPE-19 cells were maintained in 75-cm^2 culture flasks in Dulbecco's modified Eagle's medium/F12 medium (1:1, volume/volume (v/v)) in the presence of fetal bovine serum (10%) and G418 (100 μg/ml). For uptake measurements, cells were released by trypsin treatment and seeded in 24-well culture plates at an initial density of 0.1×10^6 cells/well. The culture medium was replaced with fresh medium on the second day following the initial seeding and uptake measurements were made on the third day. […] After incubation at 37° C. for a desired time, uptake was terminated by the removal of the medium and washing of the cells with ice-cold uptake buffer. The cells were then dissolved in 1% SDS in 0.2 M NaOH and used for measurement of radioactivity. The uptake buffer in most experiments was 25 mM Hepes/Tris (pH 7.5), containing 140 mM NaCl, 5.4 mM KCl, 1.8 mM CaCl2, 0.8 mM MgSO4 and 5 mM glucose.
Since enkephalins and endorphins are relevant to pain perception and to further provide evidence in support of a role for the transport system in opioidergic neurotransmission, the human neuronal cell line SK—N—SH was tested for expression of the transport system. […] Unless otherwise specified, procedures are as detailed in Example 1.
The concentration of enkephalins and dynorphins was 1 mM.
Finally, the relative affinity of various enkephalins and dynorphins for the transport system in SK—N—SH cells was determined.
To the further characterize the opioid transport of the present invention, various specific peptides that act as positive modulators of the enkephalin/endorphin transport system in the human neuronal cell line SK—N—SH were identified. Unless otherwise specified, procedures are as detailed in Example 1. […] Uptake was measured in the presence of NaCl for 30 minutes. The concentration of the dipeptides was 1 mM.
Uptake was measured in the presence of NaCl for 30 minutes. The concentration of the tripeptides was 1 mM.
Unless otherwise specified, procedures are as described in more detail in Example 1.
The dose-response relationship for the inhibition of the enkephalin/endorphin transport system by L-Lysine and its methyl and ethyl esters is shown in FIG. 15.

[2] = tested on: deltorphin II transport system in Tat-ARPE-19 cells; experiment: Inhibition of [^3H]deltorphin II uptake in Tat-ARPE-19 cells; details: Tat-ARPE-19 cells, [^3H]deltorphin II 50 nM, 30 minutes, NaCl, inhibitor 1 mM
Excerpt: (§2) Stable transfection of ARPE-19 cells with pcDNA-Tat cDNA. The pGEM2-Tat cDNA construct contained as the insert a 295 basepair (bp) fragment encoding the first exon of HIV-1 Tat gene joined to a 145 bp pET3A transcription terminator. The entire insert (440 bp) was removed from the construct by digestion with PstI and EcoRI and ligated into the multiple cloning region of pcDNA3.1 (−) vector at PstI/EcoRI site so that the insert is downstream of the cytomegalovirus (CMV) promoter. The resultant construct was sequenced to confirm the orientation of the insert. This construct was electroporated into ARPE-19 cells and the stably transfected cell clones were isolated in the presence of Geneticin (G418). To serve as a control, empty pcDNA3.1 vector was electroporated into ARPE-19 cells in an identical manner and the clones harboring the vector were selected by G418 resistance.
as §1
When the influence of Na^+ on the uptake process was investigated, the concentration of NaCl in the uptake buffer was adjusted, as desired, by isoosmotically replacing NaCl with N-methyl-D-glucamine chloride. To assess the influence of Cl^− on the uptake process, the composition of the uptake medium was modified by replacing KCl and CaCl2 with equimolar concentrations of potassium gluconate and calcium gluconate and the concentration of NaCl was adjusted, as desired, by iso-osmotically replacing NaCl with sodium gluconate. Saturation kinetics were analysed by fitting the data to the Michaelis-Menten equation. The Michaelis-Menten constant, Kt, was calculated by non-linear regression analysis and then confirmed by linear regression. Na^+- and Cl^−-activation kinetics were analyzed by fitting the data to the Hill equation and the Hill coefficients for Na^+ and Cl^− (h; the number of Na^+ and Cl^− ions involved in the activation process) and the K0.5 values (the concentration of Na^+ and Cl^−-needed for half-maximal activation) were determined from the analysis. Again, these constants were first calculated by non-linear regression methods and subsequently confirmed by linear regression methods. Experiments were repeated three times in duplicate and the results are given as means±S.E.M.
(§3) Substrate specificity of the deltorphin transport system. […] These peptides consisted of 4-13 amino acids.
Relative affinities of endogenous opioid peptides for the transport system.

[3] = tested on: deltorphin II transport system in control ARPE-19 cells; experiment: Inhibition of [^3H]deltorphin II uptake in control ARPE-19 cells; details: [^3H]deltorphin II 50 nM, 30 minutes, NaCl, peptide/antagonist 1 mM
Excerpt: as §2, §1, §3

| Compound | Deltorphin II uptake [1] | effect on [^3H]deltorphin II uptake (in words) [1] | further results |
| --- | --- | --- | --- |
| NCCCCCN [1,5-diaminopentane] | 3.24 ± 0.16 pmol/30 min/mg protein |  |  |
| NCCCCCC(=O)O [6-amino hexanoic acid] | 2.92 ± 0.18 pmol/30 min/mg protein |  |  |
| NCCCC[C@@H](N)C(=O)O [D-Lys, D-lysine] | 2.60 ± 0.31 pmol/30 min/mg protein | no effect |  |
| N[C@H](Cc1ccc(O)cc1)C(=O)O [D-Tyrosine] |  | significant inhibition | [^3H] Deltorphin II uptake [2]: 4.05 ± 0.09 pmol/mg protein/30 min; [^3H] Deltorphin II uptake (%) of control ([2]; control = 100): 52% |
| C[C@@H](N)C(=O)O [D-alanine] |  | significant inhibition |  |
| NCCCC(=O)O [GABA] | 2.62 ± 0.13 pmol/30 min/mg protein |  |  |
| NCCCCCCN [Hexamethylenediamine] | 2.83 ± 0.13 pmol/30 min/mg protein |  |  |
| N=C(N)NCCC[C@H](N)C(=O)O [L-Arg, L-arginine] | 1.46 ± 0.12 pmol/30 min/mg protein | significant inhibition |  |
| C[N+](C)(C)C[C@H](O)CC(=O)[O-] [L-Carnitine] | 2.34 ± 0.12 pmol/30 min/mg protein |  |  |
| NC(=O)NCCC[C@H](N)C(=O)O [L-Citrulline] | 2.18 ± 0.06 pmol/30 min/mg protein |  |  |
| NCCCC[C@H](N)C(N)=O [L-Lys-amide] | 2.92 ± 0.09 pmol/30 min/mg protein |  |  |
| COC(=O)[C@@H](N)CCCCN [L-Lys-methyl ester, L-lysylmethyl ester] | 0.28 ± 0.01 pmol/30 min/mg protein |  | Ki [1]: 169 ± 9 µM |
| CC(=N)NCCCC[C@H](N)C(=O)O [L-NIL] | 2.40 ± 0.15 pmol/30 min/mg protein |  |  |
| NCCC[C@H](N)C(=O)O [L-Ornitine] | 1.87 ± 0.08 pmol/30 min/mg protein |  |  |
| CC(C)C[C@H](N)C(=O)O [L-leucine] |  | significant inhibition |  |
| CC(C)[C@H](N)C(=O)O [L-valine] |  | significant inhibition |  |
| CCOC(=O)[C@@H](N)CCCCN [Lys-ethyl ester, L-lysylethyl ester] | 0.55 ± 0.05 pmol/30 min/mg protein |  | Ki [1]: 154 ± 34 µM |
| C=CCN1CC[C@]23c4c5ccc(O)c4O[C@H]2C(=O)CC[C@@]3(O)[C@H]1C5 [Naloxone] |  |  | [^3H] Deltorphin II uptake ([3]; control ARPE-19 cells (pcDNA vector alone)): 1.01 ± 0.00 pmol/mg protein/30 min; [^3H] Deltorphin II uptake (%) of control ([3]; control ARPE-19 cells, control = 100): 94% |

Reference: US20060019241A1, “Na+ and CI-coupled transport system for endogenous opioid peptides” (priority 2004, published 2006)
